Molecular target: T1, hCB1 (Homo sapiens, UniProt P21554)
T1 construct: made in house; host or cells: Sf9 insect cells (baculovirus), P2 membranes
Test: Agonist-induced GTP binding (GTPγ35S) assay at CB1, Example 8
Format: biochemical
Settings: Table II; IC50 at CB1, GTP binding with 1 nM CP55,940; read-out: IC50
Description: As noted above, compounds provided herein are CB1 antagonists. Certain such compounds are non-competitive CB1 antagonists. In addition, or alternatively, certain compounds provided herein display CB1 specificity. CB1 antagonist activity may be confirmed using an agonist-induced GTP binding assay, such as the assay described in Example 8. Such assays employ a CB1-containing cell membrane preparation (e.g., a preparation of membranes of insect cells that recombinantly express CB1) to determine the effect of a test compound on CB1 agonist-induced GTP binding to CB1. Briefly, a first cell membrane preparation comprising CB1 is contacted with: (i) labeled GTP; (ii) a CB1 agonist; and (iii) a test compound to yield a test membrane preparation. Simultaneously, or in either order, a second cell membrane preparation comprising CB1 is contacted with: (i) labeled GTP; and (ii) a CB1 agonist to yield a control membrane preparation. The labeled GTP is preferably GTPγ^35S; a representative CB1 agonist is CP55,940. Such contact is performed under conditions that are suitable for GTP binding to CB1, such as the conditions described in Example 8. The concentrations of labeled GTP and CB1 agonist used are generally concentrations that are sufficient to result in a detectable increase in the amount of labeled GTP bound to the membrane preparation in the presence of CB1 agonist. Such concentrations may be determined by routine experimentation; representative suitable concentrations are provided in Example 8. Generally, a range of test compound concentrations is used (e.g., ranging from 10^−10M to 10^−5M).
After sufficient contact (e.g., incubation) to allow GTP binding to the membrane preparations, a signal that corresponds to (represents) the amount of bound, labeled GTP is detected (typically, unbound labeled GTP is first removed via a washing step). In other words, simultaneously or in either order: (i) a test signal that represents an amount of bound, labeled GTP in the test membrane preparation is detected; and (ii) a control signal that represents an amount of bound, labeled GTP in the control membrane preparation is detected. The nature of the signal detected is determined by the type of label used. For example, if the GTP is radioactively labeled, the signal detected is radioactive decay (e.g., via liquid scintillation spectrometry). The CB1 antagonist activity of the test compound is then determined by comparing the test signal with the control signal.
This assay can also be used to detect partial agonism mediated by antagonist compounds. A compound being analyzed in this assay is referred to herein as a “test compound.” Agonist-stimulated GTP binding activity is measured as follows: Four independent baculoviral stocks (one directing the expression of hCB1 and three directing the expression of each of the three subunits of a heterotrimeric G-protein) are used to infect a culture of Sf9 cells as described in Example 5.
Agonist-stimulated GTP binding on purified membranes (as described in Example 6) is initially assessed using the cannabinoid agonist CP55,940 to ascertain that the receptor/G-protein-alpha-beta-gamma combination(s) yield a functional response as measured by GTP binding.
P2 membranes are resuspended by Dounce homogenization (tight pestle) in GTP binding assay buffer (50 mM Tris pH 7.4, 120 mM NaCl, 5 mM MgCl2, 2 mM EGTA, 0.1% BSA, 0.1 mM bacitracin, 10 KIU/mL aprotinin, 5 μM GDP) and added to reaction tubes at a concentration of 10 μg protein/reaction tube. After adding increasing doses of the agonist CP55,940 at concentrations ranging from 10^−12 M to 10^−6 M, reactions are initiated by the addition of […] GTPγ^35S. In competition experiments, non-radiolabeled test compounds are added to separate assays at concentrations ranging from 10^−10 M to 10^−5 M along with 1 nM CP55,940 to yield a final volume of 0.25 mL. […]

T1 sequence (P21554 whole entry): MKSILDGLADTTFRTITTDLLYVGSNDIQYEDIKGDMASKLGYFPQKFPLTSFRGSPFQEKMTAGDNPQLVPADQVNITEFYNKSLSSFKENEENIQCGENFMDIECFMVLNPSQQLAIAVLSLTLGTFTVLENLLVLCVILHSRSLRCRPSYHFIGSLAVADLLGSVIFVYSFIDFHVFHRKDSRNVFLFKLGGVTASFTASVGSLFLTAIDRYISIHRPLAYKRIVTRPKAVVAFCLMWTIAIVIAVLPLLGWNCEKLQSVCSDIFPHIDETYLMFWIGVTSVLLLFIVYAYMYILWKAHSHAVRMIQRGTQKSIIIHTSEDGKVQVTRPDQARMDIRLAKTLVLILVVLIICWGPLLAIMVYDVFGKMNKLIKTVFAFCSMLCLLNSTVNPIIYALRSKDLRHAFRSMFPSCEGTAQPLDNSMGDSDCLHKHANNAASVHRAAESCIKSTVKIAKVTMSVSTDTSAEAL

IC50 [nM] | SMILES
< 2000 | O=C(Nc1ccc(OC(F)F)cc1)Nc1cccc(-c2cncnc2)c1 [Compound 64, N-[4-(difluoromethoxy)phenyl]-N′-(3-pyrimidin-5-ylphenyl)urea]
< 2000 | O=C(Nc1ccc(OC(F)F)cc1)Nc1cccc(-c2ccc(C(F)(F)F)cn2)c1 [Compound 66, N-[4-(difluoromethoxy)phenyl]-N′-{3-[5-(trifluoromethyl)pyridin-2-yl]phenyl}urea]
< 2000 | O=C(Nc1ccc(OC(F)F)cc1)Nc1cccc(-c2ccc3ncccc3c2)c1 [Compound 67, N-[4-(difluoromethoxy)phenyl]-N′-(3-quinolin-6-ylphenyl)urea]
< 2000 | O=C(Nc1ccc(OC(F)F)cc1)Nc1cccc(-c2cncc3ccccc23)c1 [Compound 68, N-[4-(difluoromethoxy)phenyl]-N′-(3-isoquinolin-4-ylphenyl)urea]
< 2000 | Cc1ccc2cc(-c3cccc(NC(=O)Nc4ccc(OC(F)F)cc4)c3)ccc2n1 [Compound 70]
< 2000 | N#Cc1cncc(-c2cccc(NC(=O)Nc3ccc(OC(F)F)cc3)c2)c1 [Compound 73, N-[3-(5-cyanopyridin-3-yl)phenyl]-N′-[4-(difluoromethoxy)phenyl]urea]
< 2000 | CCc1ccc(NC(=O)Nc2cccc(-c3ccc(Cl)cn3)c2)cc1 [Compound 75, N-[3-(5-chloropyridin-2-yl)phenyl]-N′-(4-ethylphenyl)urea]
< 2000 | O=C(Nc1ccc(OC(F)F)cc1)Nc1ccc(C(F)(F)F)cc1 [Compound 77, N-[4-(difluoromethoxy)phenyl]-N′-[4-(trifluoromethyl)phenyl]urea]
< 2000 | Cc1cc(NC(=O)Nc2ccc(OC(F)F)cc2)nc(C)n1 [Compound 78, N-[4-(difluoromethoxy)phenyl]-N′-(2,6-dimethylpyrimidin-4-yl)urea]
< 2000 | O=C(Nc1ccc(OC(F)F)cc1)Nc1ccc2c(c1)CCC2 [Compound 80, N-[4-(difluoromethoxy)phenyl]-N′-(2,3-dihydro-1H-inden-5-yl)urea]
< 2000 | O=C(Nc1ccc(OC(F)F)cc1)Nc1ccc(N2CCOCC2)c(Cl)c1 [Compound 81, N-(3-chloro-4-morpholin-4-ylphenyl)-N′-[4-(difluoromethoxy)phenyl]urea]
< 2000 | O=C(Nc1ccc(OC(F)F)cc1)Nc1ccc(-n2cnc(Cl)c2Cl)cc1 [Compound 82, N-[4-(4,5-dichloro-1H-imidazol-1-yl)phenyl]-N′-[4-(difluoromethoxy)phenyl]urea]
< 2000 | O=C(Nc1ccc(Oc2ccccc2)cc1)Nc1ccc(OC(F)F)cc1 [Compound 86, N-[4-(difluoromethoxy)phenyl]-N′-(4-phenoxyphenyl)urea]
< 2000 | Cc1cc(C)cc(NC(=O)Nc2ccc(OC(F)F)cc2)c1 [Compound 89, N-[4-(difluoromethoxy)phenyl]-N′-(3,5-dimethylphenyl)urea]
< 2000 | COc1ccc(NC(=O)Nc2ccc(OC(F)F)cc2)cc1OC [Compound 92, N-[4-(difluoromethoxy)phenyl]-N′-(3,4-dimethoxyphenyl)urea]
< 2000 | O=C(Nc1ccc(OC(F)F)cc1)Nc1cccc(OC(F)(F)F)c1 [Compound 95, N-[4-(difluoromethoxy)phenyl]-N′-[3-(trifluoromethoxy)phenyl]urea]
< 2000 | CC(C)Oc1ccc(NC(=O)Nc2ccc(OC(F)F)cc2)cc1 [Compound 97, N-[4-(difluoromethoxy)phenyl]-N′-(4-isopropoxyphenyl)urea]
< 2000 | O=C(Nc1ccc(OC(F)F)cc1)Nc1cccc(-c2ccccc2)c1 [Compound 98, N-biphenyl-3-yl-N′-[4-(difluoromethoxy)phenyl]urea]
< 2000 | COc1cc(NC(=O)Nc2ccc(OC(F)(F)F)cc2)ccc1OC(F)F [Compound 100, N-[4-(difluoromethoxy)-3-methoxyphenyl]-N′-[4-(trifluoromethoxy)phenyl]urea]

More lines, now with the values behind:

SMILES | IC50 [nM]
O=C(Nc1ccc(OC(F)F)cc1)Nc1cccc(-c2cccnc2)c1 [Compound 63, N-[4-(difluoromethoxy)phenyl]-N′-(3-pyridin-3-ylphenyl)urea] | < 2000
O=C(Nc1ccc(OC(F)F)cc1)Nc1cccc(-c2cnccn2)c1 [Compound 65, N-[4-(difluoromethoxy)phenyl]-N′-(3-pyrazin-2-ylphenyl)urea] | < 2000
O=C(Nc1ccc(OC(F)F)cc1)Nc1cccc(-c2cnc3ccccc3c2)c1 [Compound 69, N-[4-(difluoromethoxy)phenyl]-N′-(3-quinolin-3-ylphenyl)urea] | < 2000
O=C(Nc1ccc(OC(F)F)cc1)Nc1cccc(-c2nccs2)c1 [Compound 71] | < 2000
COc1ccc(-c2cccc(NC(=O)Nc3ccc(OC(F)F)cc3)c2)cn1 [Compound 72] | < 2000
O=C(Nc1ccc(OC(F)F)cc1)Nc1cccc(-c2ccc(Cl)cn2)c1 [Compound 74, N-[3-(5-chloropyridin-2-yl)phenyl]-N′-[4-(difluoromethoxy)phenyl]urea] | < 2000
O=C(Nc1ccc(OC(F)F)cc1)Nc1ccc(C(F)(F)F)nc1 [Compound 76, N-[4-(difluoromethoxy)phenyl]-N′-[6-(trifluoromethyl)pyridin-3-yl]urea] | < 2000
COc1cc(NC(=O)Nc2ccc(OC(F)F)cc2)ncn1 [Compound 79, N-[4-(difluorornethoxy)phenyl]-N′-(6-methoxypyrimidin-4-yl)urea] | < 2000
O=C(Nc1ccc(OC(F)F)cc1)Nc1ccc2c(c1)C(=O)CC2 [Compound 83, N-[4-(difluoromethoxy)phenyl]-N′-(3-oxo-2,3-dihydro-1H-inden-5-yl)urea] | < 2000
COc1ccc(NC(=O)Nc2ccc(OC(F)F)cc2)cc1OC1CCCC1 [Compound 84, N-[3-(cyclopentyloxy)-4-methoxyphenyl]-N′-[4-(difluoromethoxy)phenyl]urea] | < 2000
O=C(Nc1ccc(OC(F)F)cc1)Nc1cccc(Oc2ccccc2)c1 [Compound 85, N-[4-(difluoromethoxy)phenyl]-N′-(3-phenoxyphenyl)urea] | < 2000
COc1cc(NC(=O)Nc2ccc(OC(F)F)cc2)cc(C(F)(F)F)c1 [Compound 87, N-[4-(difluoromethoxy)phenyl]-N′-[3-methoxy-5-(trifluoromethyl)phenyl]urea] | < 2000
O=C(Nc1ccc(OC(F)F)cc1)Nc1ccc2c(c1)OCCO2 [Compound 88, N-[4-(difluoromethoxy)phenyl]-N′-(2,3-dihydro-1,4-benzodioxin-6-yl)urea] | < 2000
Cc1ccc(NC(=O)Nc2ccc(OC(F)F)cc2)cc1C [Compound 90, N-[4-(difluoromethoxy)phenyl]-N′-(3,4-dimethylphenyl)urea] | < 2000
COc1cc(NC(=O)Nc2ccc(OC(F)F)cc2)cc(OC)c1 [Compound 91, N-[4-(difluoromethoxy)phenyl]-N′-(3,5-dimethoxyphenyl)urea] | < 2000
O=C(Nc1ccc(OC(F)F)cc1)Nc1cc(Cl)cc(Cl)c1 [Compound 93, N-(3,5-dichlorophenyl)-N′-[4-(difluoromethoxy)phenyl]urea] | < 2000
O=C(Nc1ccc(OC(F)F)cc1)Nc1ccc(Cl)c(Cl)c1 [Compound 94, N-(3,4-dichlorophenyl)-N′-[4-(difluoromethoxy)phenyl]urea] | < 2000
O=C(Nc1ccc(OC(F)F)cc1)Nc1ccc(OC(F)(F)F)cc1 [Compound 96, N-[4-(difluoromethoxy)phenyl]-N′-[4-(trifluoromethoxy)phenyl]urea] | < 2000
O=C(Nc1ccc(OC(F)F)cc1)Nc1ccc(-c2ccccc2)cc1 [Compound 99, N-biphenyl-4-yl-N′-[4-(difluoromethoxy)phenyl]urea] | < 2000

Source: patent US20090239841A1, “Diaryl Ureas as CB1 Antagonists” (priority 2004, published 2009)
